Patent US10925872B2, “Methods of treating cochlear synaptopathy” (PIPELINE THERAPEUTICS, INC., priority 2016, dated 2021)

Experiments:
DCC α-fragment [1] = test: DCC α-fragment Western blot of cochlea after round window delivery in vivo; design: species or system CBA/J mice; conditions: 2% in vehicle, 2 μl bilaterally to the round window, one week later
Protocol: Compound I (2% in vehicle, 2 μl) or vehicle (2 μl) was delivered bilaterally to the round window of CBA/J mice. One week later, cochlea were collected and processed for Western blot. Both cochlea from two animals were used to generate each data point. Cochlea were homogenized in 50 μL radioimmunoprecipitation assay buffer then allowed to lyse further at 4° C. for 1 h. Bone was spun out and 4× sample loading buffer added. Samples were run on a 4-15% TGX gradient gel (BioRad, Hercules, Calif.) and transferred to a nitrocellulose membrane and blocked with Odyssey Blocking Buffer (LI-COR, NE). Blots were probed with mouse DCC (BD Biosciences, San Jose, Calif.) at 1:500, and rabbit actin (loading control) antibodies (Li-Cor, NE) in blocking buffer containing 0.1% Tween-20. Membranes were washed with PBS/0.1% Tween then incubated in secondary antibody (goat anti-mouse IRDye 680LT and goat anti-rabbit IRDye 800LT, both from LI-COR, NE) diluted 1:10,000 in blocking buffer containing 0.1% Tween-20 and 0.01% SDS. Membranes were washed in PBS then imaged on a LiCor Odyssey Classic scanner and the DCC α-fragment quantified using ImageJ.

DCC α-fragment [2] = test: DCC α-fragment Western blot, mouse ex vivo embryonic spinal cord; type: cell-based, CD-1 mice; conditions: embryonic day 15 spinal cord segments, 1 μM, 24 h, normalized to actin
Excerpt: Previous reports have shown that DCC (deleted in colorectal cancer) is a γ-secretase substrate. DCC is the receptor for the guidance molecule, netrin, and its activation results in neuronal axon outgrowth, axon turning and synapse formation. Embryonic spinal cords of presenilin knockout mice treated display persistent expression of the DCC α-fragment; these fragments can enhance netrin-DCC mediated events, including axon outgrowth in cultured motor neurons (Taniguchi et al., 2003, J. Biol. Chem., 278:30425-30428, and Bai et al., 2011, Cell, 144(1): 106-18). The following studies were performed using GSM, “RO”, as well as the GSI, Compound I. RO has the structure:
Spinal cords from embryonic day 15 CD-1 mice were collected and cut into 1-2 mm segments and transferred to serum-free growth media (DMEM-F12, N2 and B27 serum supplements, penicillin/streptomycin) with 1 μM RO or 1 μM Compound I. Segments were cultured for 24 h (37° C., 5% CO2) then processed for Western blot. Membranes were probed with a DCC antibody recognizing the intracellular domain and bands were normalized to actin.

[3] = test system: Type I spiral ganglion neurons; test: Type I spiral ganglion neuron neurite outgrowth with GSIs; type: cell-based, CD-1 mice; conditions: 24-48 h, 0.1% DMSO
Protocol: Mouse spiral ganglion neurons (SGN) were harvested from CD-1 mice (postnatal day 3 to 5), dissociated and cultured on collagen I in serum free media. Cells were treated for 24-48 h with test compound in 0.1% DMSO then immunostained with the neurite marker, Tuj1 and imaged. Neurite length was quantified using ImageJ software (developed by NIH and available publicly). Only Tuj1^+ cells with clear bipolar morphology characteristic of Type I SGNs were quantified. The test compounds were Compound I, Compound II, and RO4929097, as well as the Notch sparing GSI, BMS-708163; NT-3 was included as positive control. […] Moreover, BMS-708163, a Notch-sparing GSI, and Compound I, a Notch inhibiting GSI, both increased type I SGN neurite outgrowth (FIG. 6C).

Structure (SMILES): C[C@H](OC(=O)NCC(F)(F)C(F)(F)F)C(=O)N[C@@H]1C(=O)Nc2ccccc2-c2ccccc21 [Compound I, (2,2,3,3,3-pentafluoropropyl)-carbamic acid (S)-1-((S)-6-oxo-6,7-dihydro-5H-dibenzo[b,d]azepin-7-ylcarbamoyl) ethyl ester]
- DCC α-fragment compared to vehicle alone (DCC α-fragment [1]): approximately two fold increase
- DCC α-fragment level compared to the vehicle group (DCC α-fragment [2]): Increase in α-fragment
- lengths of Type I SGN neurites [3]: significant increase
